Laboratory results reported in patent publication US20040170685A1, “Bioactive stents and methods for use thereof” (MediVas, LLC, priority 2003, published 2004).

Tested on: human aortic smooth muscle cells (SMC)
Test: Adhesion and proliferation of smooth muscle cells on gelatin coated culture plates, microscopic observation
Assay type: cell-based
Settings: bioagent 100? m
Source text: This Example illustrates the effect of different concentrations of bioactive agents on adhesion and proliferation of epithelial cells (EC) and smooth muscle cells (SMC) on gelatin coated surfaces.
Human Coronary artery endothelial cells (EC) plated on gelatin coated culture plates were co-cultured with EC special media containing one of the bioactive agents shown in Table 1 below in the various concentrations shown.
Twenty four hours later the cells were observed microscopically, stained with trypan blue and counted. The results of the microscopic observation of cell morphology and confluency of culturing the EC in the presence of the Bioagents tested are summarized in Table 2 below. The effect of the various bioagents on EC adhesion and proliferation is shown graphically in FIG. 2.
Effect of different concentrations of the bioagents listed above in Table 1 was also tested using human aortic smooth muscle cells (SMC) under similar conditions as described for EC. The results of the bioagents on adhesion and proliferation of SMC plated on gelatin coated culture plates are summarized in Table 3 below and shown graphically in FIG. 3.

CCCCCCCCCCCCC/C=C/[C@@H](O)[C@@H](N)COP(=O)(O)O [S1P, Sphingosine 1-Phosphate] was tested, and the “Microscopic observation for the SMC morphology and Confluency” value was 100% cells died.
